Source: patent publication US7087790B2, “Benzotropolone derivatives and modulation of inflammatory response” (Rutgers, The State University of New Jersey, priority 2003, dated 2006)
Where “and” joins values, the source holds several entries; their conditions need not be identical. Equal values may be shown once.

What was measured:
[1] = test system: TPA-induced Edema of Mouse Ear; test: TPA-induced ear edema assay (skin inflammation model); type: in vivo, female CD-I mice; settings: 0.5 μmol topical in acetone 20 min before TPA (1 nmol); for Average weight of ear punches (mg) (Mean ± SE): 6 mm punches 5 h later; for Percent inhibition %: ear punch weight 5 h later
From the text: In yet another aspect of the invention, the present invention is directed to a method of preventing and/or treating inflammation in an animal using compositions having benzotropolone containing compounds disclosed herein. […] The anti-inflammatory activity (or anti-edema) of benzotropolone containing compounds of the present invention can be tested using 12–0-tetradecanoylphorbol- 13-acetate (TPA) TPA-induced inflammatory skin edema assay. Application of TPA on skin results in induction of omithine decarboxylase activity that increases the polyamine level and epidermal hyperplasia, and inflammation, and pro-inflammatory cytokine (e.g., IL-1β) and prostaglandins (prostaglandin E2) production at the site. The benzotropolone containing compounds can be applied either prior to or subsequent to or simultaneously with the topical application of TPA to skin tissue (e.g. mice ear).
The TPA (12-O-tetradecanoylphorbol-13-acetate)-induced ear edema assay was carried out to examine anti-inflammatory activity of benzotropolone-containing compounds in skin inflammation model. The female CD-I mice (24-25 days old) were topically treated with 20 μl of acetone and benzotropolone-containing compounds in 20 μl of acetone at 20 minutes before topical application of 20 μl of acetone or TPA (1 nmol) in 20 μl of acetone. Then, five hours later, all mice were sacrificed by cervical dislocation. The ear punches (6 mm in diameter) were taken and weighed.

[2] = Oxygen radical absorbance capacity (ORAC) assay with fluorescein probe and AAPH; settings: Trolox equivalents; 0.5 μM; 75 mM phosphate buffer pH 5.5; mean ± SD, n = 4 (a: n = 3)
From the text: In another aspect, the present invention also discloses antioxidant activities of the compositions having benzotropolone containing compounds disclosed herein. Oxygen radical absorbence capacity (ORAC) assay, which is a measure of free radical scavenging ability, is simple and sensitive method to measure the oxygen-radical absorbing capacity. It has been widely used for measuring the antioxidant activity of food and nutraceutical components. ORAC assay was developed by Cao et al., 1993, Free Radical Biol. Med. 14:303–311. In the assay, β-phycoerythrin (β-PE) was used as fluorescent indicator protein and 2,2′-Azobis(2-amidinopropane) dihydrochloride (AAPH) used as a peroxy radical generator. β-PE is a photosynthetic protein found in red algae. β-PE has been used as fluorescent probe because of its distinct excitation and emission wavelength (Ex. 540 nm, Em. 565 nm). The use of β-PE as a fluorescent probe, however, has certain defects. When reactive oxygen species attack the β-PE, it can easily lose the fluorescence. Furthermore, the ORAC value can be affected by possible interaction between polyphenols and proteins. Recently, Ou et al., 2001, J. Agric. Food Chem. 49:4619–4626 reported an improved ORAC method using fluorescein, instead of β-PE, as a fluorescent probe. Accordingly, fluorescein is used as a fluorescent probe in ORAC assays for testing the antioxidant activities of the compounds of the present invention.
Oxygen radical absorbance capacity (ORAC) assay was performed to examine antioxidant activity of individual theaflavins and epitheaflavic acids. All reagents were prepared in 75 mM phosphate buffer (pH 5.5). Reaction mixture consists of 3 mL of Fluorescein solution (8.16×10^−5 mM), 500 μL AAPH (153 mM), and 500 μL of sample solution or blank. Once AAPH was added, fluorescence was measured every 1 min using Hitachi Model F-3010 fluorescence spectrophotometer with emission and excitation wavelength of 515 and 493 nm, respectively. The ORAC value was calculated based on the area under the fluorescence decay curve of fluorescein in the presence of the test compound comparing to the area generated by standard Trolox and blank. The net area under the curve and ORAC values were calculated by the formula presented by Cao et al (Cao et al. 1993).
The relative ORAC value (Trolox equivalents) was calculated with following equation.
The area under curve (AUC) was calculated according to following equation. AUC=1+f1/f0+f2/f0+f3/f0+f4/f0 . . . +f119/f0+f120/f0 f0 is the initial fluorescence reading at 0 min, fi is the fluorescence reading at time i.
Quenching curves representing the peroxyl radical absorbing activity of Trolox in various concentration (0˜4 μM) was used as a standard (data not shown). The net area of quenching curve increased proportionally to an increment of the Trolox concentration. Quenching curves of theaflavins and EGCG were examined (data not shown). […] Quenching curves of epitheaflavic acids and EGCG were also examined. (data not shown).

TPA-induced ear edema = settings: topical; cited from earlier work

Compound	Average weight of ear punches (mg) (Mean ± SE) [1]	Percent inhibition % [1]	Relative ORAC value [2]	anti-inflammatory activity (rank order, Liang et al.) (TPA-induced ear edema)
O=C(O[C@@H]1Cc2c(O)cc(O)cc2O[C@@H]1c1cc(=O)c(O)c2c(O)c(O)cc([C@H]3Oc4cc(O)cc(O)c4C[C@H]3O)c2c1)c1cc(O)c(O)c(O)c1 [Theaflavin 3-gallate]	7.86 ± 0.24 mg	91.5%	13.17 ± 0.18	
Theaflavin 3′-gallate	7.44 ± 0.18 mg	100.0%	12.40 ± 0.58	
O=C(O)c1cc(O)c(=O)c2c(O)c(O)cc([C@H]3Oc4cc(O)cc(O)c4C[C@@H]3O)c2c1 [Theaflavic acid]	9.28 ± 0.37 mg and 8.95 ± 0.43 mg	78.3% and 79.5%		
O=c1c(O)cccc2cc(O)c(O)c(O)c12 [Purprogallin, Purpurogallin]			6.01 ± 0.42	
Epitheaflavic acid	9.39 ± 0.43 mg	74.4%	9.74 ± 0.38	
O=C(OC1Cc2c(O)cc(O)cc2OC1c1cc(O)c(=O)c2c(O)c(O)cc(C3Oc4cc(O)cc(O)c4CC3O)c2c1)c1cc(O)c(O)c(O)c1 (stereo not drawn) [Neotheaflavin 3-gallate]	8.42 ± 0.42 mg	88.4%		
O=c1c(O)cc([C@H]2Oc3cc(O)cc(O)c3C[C@H]2O)cc2c([C@H]3Oc4cc(O)cc(O)c4C[C@@H]3O)cc(O)c(O)c12 [Neotheaflavin]	10.58 ± 0.73 mg	62.9%		
O=c1c(O)cc([C@H]2Oc3cc(O)cc(O)c3C[C@H]2O)cc2c([C@H]3Oc4cc(O)cc(O)c4C[C@H]3O)cc(O)c(O)c12 [Theaflavin]	7.90 ± 0.42 mg and 8.23 ± 0.40 mg	89.2% and 87.8%	11.60 ± 0.30	
O=C(O)c1cc(O)c(=O)c2c(O)c(O)ccc2c1 [GACa]	8.61 ± 0.54 mg	83.3%		
Theaflavate A	8.52 ± 0.26 mg	87.2%		
Theaflavin 3,3′-digallate [Theaflavin 3,3′-gallate]	7.03 ± 0.18 mg	100.0%	13.54 ± 0.69	stronger than TF-2
Neotheaflavate A	8.65 ± 0.64 mg	85.7%		
O=C(O[C@@H]1Cc2c(O)cc(O)cc2O[C@@H]1c1cc(O)c(O)c(O)c1)c1cc(O)c(O)c(O)c1 [EGCG, (−)-epigallocatechin-3-gallate, reference compound]	8.79 ± 0.54 mg	68.3%	7.69 ± 0.35	
Epigallocatechinocatechol gallate [EGCGCa]	7.49 ± 0.12 mg	96.3%		
Theaflavate B	8.35 ± 0.32 mg	89.2%		
